One assay has as its target T1, Arginase-1 (Homo sapiens, UniProt P05089).
T1 sequence (P05089 whole entry): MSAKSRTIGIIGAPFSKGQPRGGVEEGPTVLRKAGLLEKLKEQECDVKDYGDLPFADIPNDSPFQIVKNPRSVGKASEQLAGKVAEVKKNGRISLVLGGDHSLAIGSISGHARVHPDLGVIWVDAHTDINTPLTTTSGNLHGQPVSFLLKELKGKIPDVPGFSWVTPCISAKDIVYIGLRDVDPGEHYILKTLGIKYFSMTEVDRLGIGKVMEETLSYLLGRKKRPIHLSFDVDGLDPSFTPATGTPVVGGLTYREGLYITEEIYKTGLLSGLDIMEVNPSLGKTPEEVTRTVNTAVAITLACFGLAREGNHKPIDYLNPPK
In words: Inhibition of Arginase. Here is the method:
(§1) Inhibition of arginase I (ARG I) and arginase II (ARGG II) novel compounds is followed spectrophotometrically at 530 nm. The compound to be tested is dissolved in H2O and prepared 100 mM stock solution. 10 μl of the stock solution is diluted in 90 μl of the assay buffer that comprises 0.1M sodium phosphate buffer containing 130 mM NaCl, pH 7.4, to which is added ovalbumin (OVA) at a concentration of 1 mg/mi. Solutions of arginase I and II are prepared in 100 mM sodium phosphate buffer, pH 7.4 containing 1 mg/ml OVA to give an arginase stock solution at a final concentration of 100 ng/ml. To each well of a 96-well microtiter plate is add 40 μl of enzyme, 10 μl of an inventive compound and 10 μl of enzyme substrate (L-arginine+manganese sulfate). For wells that are used as positive controls, only the enzyme and its substrate are added, while wells used as negative controls contain only manganese sulfate. After incubating the microtiter plate at 37° C. for 60 minutes, 150 μl of a urea reagent obtained by combining equal proportions (1:1) of reagents A and B is added to each well of the microtiter plate to stop the reaction. The urea reagent is made just before use by combining Reagent A (10 mM o-phthaldialdehyde, and 0.4% polyoxyethylene (23) lauryl ether (w/v) in 1.8 M sulfuric acid) with Reagent B (1.3 mM […], 0.4% polyoxyethylene (23) lauryl ether (w/v), 130 mM boric acid in 3.6 M sulfuric acid). After quenching the reaction mixture, the microtiter plate is allowed to stand for an additional 10 minutes at room temperature to allow color development. T

The target in assay [1] is T2, Arginase-2, mitochondrial (Homo sapiens, UniProt P78540).
T2 sequence (P78540 whole entry): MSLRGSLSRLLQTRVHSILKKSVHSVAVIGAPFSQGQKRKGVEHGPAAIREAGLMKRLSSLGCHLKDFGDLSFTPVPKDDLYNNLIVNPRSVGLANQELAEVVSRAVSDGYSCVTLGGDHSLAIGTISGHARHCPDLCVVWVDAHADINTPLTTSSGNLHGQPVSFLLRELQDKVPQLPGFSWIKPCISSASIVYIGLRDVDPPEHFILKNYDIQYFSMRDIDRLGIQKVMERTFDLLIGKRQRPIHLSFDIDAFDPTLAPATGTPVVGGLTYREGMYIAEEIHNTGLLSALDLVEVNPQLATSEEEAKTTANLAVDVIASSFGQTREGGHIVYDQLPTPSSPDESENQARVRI
In words: Inhibition of Arginase. Here is the method: as §1

The term IC50 denotes the point on the concentration scale where inhibition reaches its midpoint. Read a low IC50 as inhibition by little substance.

On to `CCCCNC(=O)Cn1nnnc1C(N)CCCCB(O)O` (stereo not given) [US11845767, Example 271], for which half-maximal inhibition against Arginase-1 (IC50) was put at 0.014 µM.

With `NC(CCCCB(O)O)c1nnnn1CC(=O)N1CCOCC1` (stereo not given) [US11845767, Example 274], at Arginase-1, it took 0.34 µM to reach half-maximal inhibition (IC50).

For the compound `NC(CCCCB(O)O)c1nnnn1CCc1ccc(Br)cc1` (stereo not given) [US11845767, Example 313], on Arginase-1, the IC50 is < 0.101 µM.

Consider `NC(CCCCB(O)O)c1nnnn1CC(=O)NCc1ccc(Cl)cc1F` (stereo not given) [US11845767, Example 318], for which the IC50 on Arginase-1 is 0.0155 µM; in assay [1], 0.0186 µM.

For the origin of these results see BindingDB's records for patent US11845767 (Rijksuniversiteit Groningen, 2023).
